# Data taken from patent US20230348415A1, “BISPECIFIC ANTAGONISTS OF RETINOL-BINDING PROTEIN 4 THAT STABILIZE TRANSTHYRETIN TETRAMERS, THEIR PREPARATION, AND USE IN THE TREATMENT OF COMMON AGE-RELATED COMORBIDITIES” (The Trustees of Columbia University in the City of New York, priority 2020, published 2023).
# Like-named read-outs stand apart in the source and are kept apart here.
# Assays:
# RBP4 = RBP4 (Homo sapiens (Human), UniProt P02753); assay: RBP4 SPA binding assay (displacement of 3H-retinol)
# RBP4-TTR interaction = RBP4-TTR interaction (Homo sapiens (Human), UniProt P02753); assay: HTRF RBP4-TTR interaction assay; format: biochemical
# Experimental: HTRF Cryptate labeling kit from CisBio (Cisbio, cat #62EUSPEA, Bedfored, MA) was used to label TTR with Eu^3+ Cryptate. The assay was performed in a final assay volume of 16 μl in the buffer that contained 10 mM Tris-HCl pH 7.5, 1 mM DTT, 0.05% NP-40, 0.05% Prionex, 6% glycerol, and 400 mM KF. […] All of the reactions were performed under dim red light in the dark. The plates were read in the SpectraMax M5e Multimode Plate Reader (Molecular Devices, Sunnyvale, CA) after the overnight incubation at 4° C. […] The HTRF signal was expressed as the ratio of fluorescence intensity: Flu668/Flu620×10,000.
# TTR = TTR (Homo sapiens (Human), UniProt P02766); assay: biochemical; format: binding; conditions: FITC-coupled TTR FP probe; read-out: TTR FP IC50
# Experimental: Compound binding to TTR was assessed in the fluorescence polarization assay. […] Each well contained 200 nM TTR and 100 nM FITC-diclofenac in the FP buffer (10 mM Tris-HCl pH 7.5, 150 mM NaCl, 0.01% CHAPS, 0.01% Prionex) along with test compounds. Nonspecific binding was determined in the presence of 500 μM unlabeled diclofenac (Sigma-Aldrich). Reactions with test compounds were incubated overnight at 4° C. and FP was measured on SpectramaxM5e plate reader (Molecular Devices).
# [1] = fixed 10 nM 3H-retinol, read-out: RBP4 SPA IC50
# [2] = 1 μM retinol, read-out: RBP4-TTR HTRF IC50
Compound,IC50 (RBP4; [1]) [nM],IC50 (RBP4-TTR interaction; [2]) [nM],IC50 (TTR) [nM],IC50 (RBP4; read-out: RBP4 SPA IC50) [nM],IC50 (RBP4) [nM],IC50 (RBP4-TTR interaction) [nM]
"Cc1cc(C(=O)NC2CC2)nc(N2CCC(COc3ccccc3C(F)(F)F)C2)n1 (racemic) [Compound (±)-102, (±)-N-Cyclopropyl-6-methyl-2-(3-((2-(trifluoromethyl)phenoxy)methyl)pyrrolidin-1-yl)pyrimidine-4-carboxamide]",62,19000,4100,–,–,–
"Cc1cc(C(=O)NS(C)(=O)=O)nc(N2CCC(COc3ccccc3C(F)(F)F)C2)n1 (racemic) [(±)-99, (±)-6-Methyl-N-(methylsulfonyl)-2-(3-((2-(trifluoromethyl)phenoxy)methyl)pyrrolidin-1-yl)pyrimidine-4-carboxamide]",81,700,4200,–,–,–
"Cc1cc(C(=O)O)nc(N2CCC(COc3cnccc3C(F)(F)F)C2)n1 (racemic) [Compound (±)-92, (±)-6-Methyl-2-(3-(((4-(trifluoromethyl)pyridin-3-yl)oxy)methyl)pyrrolidin-1-yl)pyrimidine-4-carboxylic Acid]",520,3700,> 30000,–,–,–
"Cc1cc(C(=O)O)nc(N2CC[C@H](COc3ccccc3C(F)(F)F)C2)n1 [Compound (S)-56, (S)-6-Methyl-2-(3-((2-(trifluoromethyl)phenoxy)methyl)pyrrolidin-1-yl)pyrimidine-4-carboxylic Acid]",150,750,3900,–,–,–
"Cc1cc(C(=O)O)nc(N2CC[C@@H](COc3ccccc3C(F)(F)F)C2)n1 [Compound (R)-50, (R)-6-Methyl-2-(3-((2-(trifluoromethyl)phenoxy)methyl)pyrrolidin-1-yl)pyrimidine-4-carboxylic Acid]",–,240,3200,65,–,–
"Cc1cc(C(=O)O)nc(N2CCC(CSc3ccccc3C(F)(F)F)C2)n1 (racemic) [Compound (±)-71, (±)-6-Methyl-2-(3-(((2-(trifluoromethyl)phenyl)thio)methyl)pyrrolidin-1-yl)pyrimidine-4-carboxylic Acid]",230,1300,10500,–,–,–
"Cc1cc(C(=O)O)nc(N2CCC(COc3ccccc3C3CCCCC3)C2)n1 (racemic) [Compound (±)-85, (±)-2-(3-((2-Cyclohexylphenoxy)methyl)pyrrolidin-1-yl)-6-methylpyrimidine-4-carboxylic Acid]",–,–,> 30000,–,210,–
"Cc1cc(C(=O)O)nc(N2CCC(CNc3ccccc3C(F)(F)F)C2)n1 (racemic) [(±)-76, (±)-6-Methyl-2-(3-(((2-(trifluoromethyl)phenyl)amino)methyl)pyrrolidin-1-yl)pyrimidine-4-carboxylic Acid]",900,7500,3500,–,–,–
"Cc1cc(C(=O)O)nc(N2CCC3(CCN(c4ccccc4C(F)(F)F)C3)C2)n1 (racemic) [(±)-67, (±)-6-Methyl-2-(7-(2-(trifluoromethyl)phenyl)-2,7-diazaspiro[4.4]nonan-2-yl)pyrimidine-4-carboxylic Acid]",–,–,1600,–,260,–
"Cc1cc(-c2nn[nH]n2)nc(N2CCC(COc3ccccc3C(F)(F)F)C2)n1 (racemic) [(±)-103, (±)-4-Methyl-6-(2H-tetrazol-5-yl)-2-(3-((2-(trifluoromethyl)phenoxy)methyl)pyrrolidin-1-yl)pyrimidine]",–,–,1260,–,86,1600
"CNC(=O)c1cc(C)nc(N2CCC(COc3ccccc3C(F)(F)F)C2)n1 (racemic) [(±)-101, (±)-N,6-dimethyl-2-(3-((2-(trifluoromethyl)phenoxy)methyl)pyrrolidin-1-yl)pyrimidine-4-carboxamide]",89,> 30000,> 30000,–,–,–
"Cc1cc(C(=O)O)nc(N2CCCC(COc3ccccc3C(F)(F)F)C2)n1 (racemic) [(±)-62, (±)-6-Methyl-2-(3-((2-(trifluoromethyl)phenoxy)methyl)piperidin-1-yl)pyrimidine-4-carboxylic Acid]",–,–,1100,–,480,15000
"Cc1cc(C(=O)O)nc(N2CCC(OCc3ccccc3C(F)(F)F)C2)n1 (racemic) [(±)-80, (±)-6-Methyl-2-(3-((2-(trifluoromethyl)benzyl)oxy)pyrrolidin-1-yl)pyrimidine-4-carboxylic Acid]",–,–,13000,–,> 3000,–
"Cc1cc(C(=O)O)nc(N2CCC(COc3cc(C(F)(F)F)cc(C(F)(F)F)c3)C2)n1 (racemic) [Compound (±)-91, (k)-2-(3-((3,5-Bis(trifluoromethyl)phenoxy)methyl)pyrrolidin-1-yl)-6-methylpyrimidine-4-carboxylic Acid]",1600,–,> 30000,–,–,–
"O=C(O)c1cccc(N2CCC(COc3ccccc3C(F)(F)F)C2)n1 (racemic) [Compound (±)-96, (±)-6-(3-((2-(Trifluoromethyl)phenoxy)methyl)pyrrolidin-1-yl)picolinic acid]",–,–,25000,–,> 3000,–
"COc1ccc(C(F)(F)F)c(OCC2CCN(c3nc(C)cc(C(=O)O)n3)C2)c1 (racemic) [Compound (±)-90, (k)-2-(3-((5-Methoxy-2-(trifluoromethyl)phenoxy)methyl)pyrrolidin-1-yl)-6-methylpyrimidine-4-carboxylic Acid]",> 3000,–,> 30000,–,–,–
"Cc1cc(C(=O)O)nc(N2CC(COc3ccccc3C(F)(F)F)C2)n1 [Compound 38, 6-Methyl-2-(3-((2-(trifluoromethyl)phenoxy)methyl)azetidin-1-yl)pyrimidine-4-carboxylic Acid]",800,6500,26000,–,–,–
"Cc1cc(C(=O)O)nc(N2CCC(COc3ccccc3C(F)(F)F)C2)c1 (racemic) [(±)-95, (±)-4-Methyl-6-(3-((2-(trifluoromethyl)phenoxy)methyl)pyrrolidin-1-yl)picolinic Acid]",130,540,7400,–,–,–
"Cc1cc(C(=O)O)nc(N2CCC(COc3ccccc3C(C)(C)C)C2)n1 (racemic) [Compound (±)-83, (±)-2-(3-((2-(Tert-butyl)phenoxy)methyl)pyrrolidin-1-yl)-6-methylpyrimidine-4-carboxylic Acid]",130,450,> 30000,–,–,–
"Cc1cc(C(=O)O)nc(N2CCC(COc3cccc(Cl)c3C(F)(F)F)C2)n1 (racemic) [Compound (±)-86, (k)-2-(3-((3-Chloro-2-(trifluoromethyl)phenoxy)methyl)pyrrolidin-1-yl)-6-methylpyrimidine-4-carboxylic Acid]",180,–,3900,–,–,–
"Cc1cc(C(=O)O)nc(N2CCC(Oc3ccccc3C(F)(F)F)C2)n1 (racemic) [(±)-27, (±)-6-Methyl-2-(3-(2-(trifluoromethyl)phenoxy)pyrrolidin-1-yl)pyrimidine-4-carboxylic Acid]",–,–,8800,–,> 3000,–
"Cc1cc(C(N)=O)nc(N2CCC(COc3ccccc3C(F)(F)F)C2)n1 (racemic) [Compound (±)-100, (±)-6-Methyl-2-(3-((2-(trifluoromethyl)phenoxy)methyl)pyrrolidin-1-yl)pyrimidine-4-carboxamide]",62,2300,> 30000,–,–,–
"Cc1cc(C(=O)O)nc(N2CCC(COc3cc(F)ccc3C(F)(F)F)C2)n1 (racemic) [Compound (±)-88, (±)-2-(3-((5-Fluoro-2-(trifluoromethyl)phenoxy)methyl)pyrrolidin-1-yl)-6-methylpyrimidine-4-carboxylic Acid]",130,300,13000,–,–,–
"Cc1cc(C(=O)O)nc(N2CCC(COc3c(F)cccc3C(F)(F)F)C2)n1 (racemic) [Compound (±)-89, (±)-2-(3-((2-Fluoro-6-(trifluoromethyl)phenoxy)methyl)pyrrolidin-1-yl)-6-methylpyrimidine-4-carboxylic Acid]",300,1000,1900,–,–,–
"O=C(O)c1ccnc(N2CCC(COc3ccccc3C(F)(F)F)C2)n1 (racemic) [Compound (±)-94, (±)-2-(3-((2-(Trifluoromethyl)phenoxy)methyl)pyrrolidin-1-yl)pyrimidine-4-carboxylic Acid]",–,–,11000,–,1670,–
"Cc1cc(C(=O)O)nc(N2CCC(COc3cccnc3C(F)(F)F)C2)n1 (racemic) [Compound (±)-93, (±)-6-Methyl-2-(3-(((2-(trifluoromethyl)pyridin-3-yl)oxy)methyl)pyrrolidin-1-yl)pyrimidine-4-carboxylic Acid]",–,–,> 30000,–,660,–
"O=C(O)c1ccc(F)c(N2CCC(COc3ccccc3C(F)(F)F)C2)c1 (racemic) [(±)-98, (±)-4-Fluoro-3-(3-((2-(trifluoromethyl)phenoxy)methyl)pyrrolidin-1-yl)benzoic Acid]",–,–,1880,–,2350,–
"Cc1cc(C(=O)O)nc(N2CC(Oc3ccccc3C(F)(F)F)C2)n1 [Compound 32, 6-Methyl-2-(3-(2-(trifluoromethyl)phenoxy)azetidin-1-yl)pyrimidine-4-carboxylic Acid]",–,–,13500,–,–,–
